Measurements reported in patent US20170333390A1, “PHYTOCHEMICAL COMPOSITIONS INCLUDING SESAMIN FOR ANTI-INFLAMMATORY, ANTI-CYTOKINE STORM, AND OTHER USES” (CHIANG MAI UNIVERSITY, priority 2009, published 2017).

What was measured:
[1] = test system: IL-1 released by LPS induced peripheral blood mononuclear cells (PBMCs); assay: Quantity of IL-1 released by LPS induced PBMCs (ELISA); format: cell-based; conditions: LPS 20 ng/ml
Method: Experiments were conducted to evaluate the effect of particular phytochemical compositions provided by the present disclosure on quantity of IL-1 released by specified cells found within a body of a living organism. Cells used for the experiment described in this example are LPS induced peripheral blood mononuclear cells (PBMCs). It is understood by a person of ordinary skill in the art that the PBMCs may be substituted for other immune cells found within the body. It is also understood by a person having ordinary skill in the art that other inducing substances or chemicals besides LPS, for example viral antigens, may also be used for inducing the PBMCs.
To conduct the experiments of example two, PBMCs were isolated and prepared using isolation techniques or methods known to a person of ordinary skill in the art. An exemplary method or technique is the differential density gradient centrifugation technique, the steps or process steps of which are known to a person of ordinary skill in the art. In addition, LPS can be obtained from a commercial source, for example Sigma-Aldrich Co.
The PBMCs are cultured in 10% fetal calf serum in RPMI1640 medium. Seven cultures of PBMCs, i.e. culture 1 to culture 7, were prepared. The contents of each of cultures 1 to 7 are as follows: • (i) Culture 1: First control culture. Includes a predetermined volume of PBMCs (1×10^5 PBMCs/culture); • (ii) Culture 2: Second control culture. […]
After a predetermined time period, quantity of IL-1 in each of cultures 1 to 7 was quantified using the ELISA technique (e.g., Biotrak Easy ELISA Aersham). The quantity of IL-1 detected by the ELISA technique in each of cultures 1 to 7 reflects the quantity of IL-1 released by the PBMCs of that culture.

[2] = test system: cartilage tissue cultures exposed to IL-1 (ECM degradation, HA release); assay: HA release from IL-1 exposed cartilage tissue cultures (ELISA); format: cell-based; conditions: relative to control culture
Method: Experiments were conducted to evaluate the anti-inflammatory effects of combinations of particular phytochemical compositions provided by the present disclosure with known substances, compositions, or drugs that are associated with an anti-inflammatory effect and/or an anti-degenerative or tissue integrity preservation effect in connective tissue. In the context of the present disclosure, the term “connective tissue” encompasses connective tissue proper (e.g., dense or fibrous connective tissue), as well as specialized connective tissue such as cartilage or bone. More specifically, experiments were conducted to evaluate the anti-inflammatory, anti-degenerative, and/or structural preservation effects of a combination of particular phytochemical compositions provided by the present disclosure with glucosamine sulfate. In addition, the experiments compared the anti-inflammatory/anti-degenerative effects of the combination of particular sesamin or sesamin-based phytochemical compositions provided by the present disclosure plus glucosamine sulfate, versus the anti-inflammatory/anti-degenerative effects of glucosamine sulfate alone.
Hyaluronic acid (HA) is an important component of the extracellular matrix (ECM), as well as a major component of synovial fluid. HA is present in articular cartilage, and contributes to cartilage resilience. It is known that IL-1 stimulates the synthesis and activity of matrix metalloproteinases and other enzymes that are associated with cartilage degradation as well as rheumatoid arthritis and osteoarthritis. A set of experimental cartilage tissue cultures were prepared using cartilage tissue samples containing HA within their ECMs. As further detailed below, the experimental cartilage tissue cultures selectively incorporated glucosamine sulfate alone; sesamin alone; or a combination of glucosamine sulfate and sesamin. Additionally, a control cartilage tissue culture remained unexposed to either of sesamin or glucosamine sulfate.
ECM degradation was induced in the experimental and control cartilage tissue cultures by exposing the cultures to IL-1. A measure or estimate of a cartilage tissue anti-degenerative effect was defined in accordance with an amount of HA that an experimental cartilage tissue culture released into the tissue culture medium relative to a reference or baseline amount of HA that was released into the tissue culture medium by the control cartilage tissue culture. More particularly, a percentage reduction in the amount of HA released into the tissue culture medium by a given experimental cartilage tissue culture relative to the amount of HA released into the tissue culture medium by the control cartilage tissue culture, indicated below as “Percentage (%) HA Reduction”, conveys or indicates the magnitude of an anti-degenerative or structural preservation effect provided by the experimental cartilage tissue culture under consideration. A corresponding measure or estimate of percentage (%) HA retention by cartilage tissue can also be defined based upon the experimental results. The amount or level of HA present in a given tissue culture medium was detected using ELISA, in a manner that can be understood by one of ordinary skill in the art.

## c1cc2c(cc1[C@H]1OC[C@H]3[C@@H]1CO[C@@H]3c1ccc3c(c1)OCO3)OCO2 [sesamin]
[1]; 0.1 uM sesamin (culture 3), compared to control culture 1, 24 hours
  decrease in quantity of IL-1: approximately 5%
[1]; 0.5 uM sesamin (culture 4), compared to control culture 1, 24 hours
  decrease in quantity of IL-1: approximately 5%
[1]; 10 uM sesamin (culture 7), compared to control culture 2, 24 hours
  decrease in quantity of IL-1: approximately 35%
[2]; sesamin 0.25 uM (88.6 ug/ml)
  Percentage (%) HA Reduction: approximately 0%
[2]; sesamin 0.25 uM (88.6 ug/ml), listed as Sesamin
  Percentage (%) HA Reduction: 0%
[2]; sesamin 0.50 uM (177.2 ug/ml)
  Percentage (%) HA Reduction: approximately 4%
[2]; sesamin 0.50 uM (177.2 ug/ml), listed as Sesamin
  Percentage (%) HA Reduction: 4%
[2]; sesamin 1.00 uM
  Percentage (%) HA Reduction: approximately 43%
[2]; sesamin 1.00 uM, listed as Sesamin
  Percentage (%) HA Reduction: 56%
